# Paper PMC7993375, “Discovery of novel quinoline-based analogues of combretastatin A-4 as tubulin polymerisation inhibitors with apoptosis inducing activity and potent anticancer effect” (Journal of Enzyme Inhibition and Medicinal Chemistry, 2021)
# Read-outs that look alike come from different tables or passages of the source.
# What was measured:
# HL-60 = assay: MTT cell viability assay, HL-60 leukaemia cells; format: cell-based; settings: Homo sapiens
# Method: (§1) The four human tumour cell lines MCF-7, HCT-116, HL-60 and HeLa used in this study were obtained from the VACSERA (Giza, Egypt) cell culture unit that were originally acquired from ATCC (Manassas, VA, USA). All the human tumour cell lines were cultured in Dulbecco’s Modified Eagle’s Medium (DMEM) with 10% foetal bovine serum, 2 mM L-glutamine and 100 µg/mL penicillin/streptomycin. Cells were maintained at 37 °C in 5% CO2 in a humidified incubator. All cells were sub-cultured 3 times/week by trypsinisation using TrypLE Express (1X).
# (§2) The quinoline compounds were evaluated for antiproliferative effect using the MTT viability assay of four cancer cell lines (MCF-7, HCT-116, HL-60 and HeLa) and normal breast cells MCF-10A to calculate the relative IC50 values for each compound. Cells were seeded in triplicate in 96-well plates at a density of 10 × 10^3 cells/ml in a total volume of 200 µl per well. 0.1% of DMSO was used as a vehicle control. Following, the cells were treated with 2 µl test compound (from stock solutions in ethanol) to furnish the concentration range of study, 1 nM to 50 µM, and re-incubated for a further 72 h. The culture medium was then removed, and the cells washed with 100 µL phosphate buffered saline (PBS) and 50 µL MTT added, to reach a final concentration of 1 mg/mL. Cells were incubated for 2 h in darkness at 37 °C. Solubilisation was begun through the addition of […] DMSO, and the cells maintained at room temperature in darkness for 20 min to ensure thorough colour diffusion before reading the absorbance. Plates were incubated for 72 h at 37 °C + 5% CO2. The MTT (5 mg/mL in PBS) was added and incubated for another 4 h, and the optical density was detected with a microplate reader at 570 nm. Results were expressed as percentage viability relative to vehicle control (100%). Dose response curves were plotted and IC50 values (concentration of drug resulting in 50% reduction in cell survival) were obtained using the commercial software package Prism (GraphPad Software, Inc., La Jolla, CA, USA). All the experiments were repeated in at least three independent experiments.
# MCF-7 = assay: MTT cell viability assay, MCF-7 breast adenocarcinoma cells; format: cell-based; settings: Homo sapiens
# Method: as §1, §2
# caspase-9 = assay: Caspase-9 activation assay; format: cell-based, human
# Method: (§3) The level of the anti-apoptotic marker and apoptotic marker BAX were assessed using Bcl-2 Elisa kit and human Bax ELISA Kit purchased from Zymed laboratories, invitrogen and Cloud-Clone Crop. (Katy, TX, USA), respectively, following the manufacturer’s instructions. Briefly, Treated MCF-7 cell lysate with 250 nM of compound 12c were prepared, and equal amount of cell lysates were loaded and propped with specific antibodies. The samples were measured and analysed at 450 nm in ROBONEK P2000 ELISA reader. In Vitro Caspase-9 Activation Assay was performed using human active caspase-9 Invitrogen EIA kit according to the manufacturer’s instructions. Compound 12c at concentrations of 50 and 250 nM and CA-4 (50 nM) were prepared in dH2O up to a final volume of 50 µL/well followed by addition of 5 µL of active caspase-9. Following, the cells were mixed and 50 µL of the Master Mix was added to each well and allowed to react at 37 °C for 1 h. The fluorescence intensity of the test samples was recorded and analysed in a fluorescence plate reader at 400 nm excitation and 505 nm emissions. All experiments were conducted in triplicates.
# MCF-7 cells [1] = assay: Intracellular ROS production (H2-DCFDA); format: cell-based, human; settings: 24 h, untreated 1.0%
# Method: (§4) Mitochondrial membrane potential (Δψmt) was measured by flow cytometry with DiOC2(3) staining and additional labelling with an annexin V conjugate. After treatment with compound 12c (50 and 250 nM) and CA-4 (50 nM), cells were stained with DiOC2(3) dye for 30 min in the incubator, then harvested and washed with PBS. DiOC2(3)-stained cells were resuspended with 1X annexin binding buffer, followed by addition of annexin V conjugate and incubated at 37 °C for 15 min. The data from the flow cytometry were analysed by Cell Quest software. Production of intracellular reactive oxygen species (ROS) was measured using 2,7–dichlorofluorescin diacetate (H2-DCFDA) dye. MCF-7 cells were seeded and treated either with vehicle (0.1% DMSO) or with compound 12c (50 and 250 nM) or CA-4 (50 nM) for 6, 12 and 24 h. H2O2 was used as a positive control. The amount of ROS generated was estimated after 2 h of selected compound treatment. The cells were collected by centrifugation and washed twice with PBS. Cells were then incubated with DCFDA dye (25 µM) in dark at 37 °C for 1 h. Fluorescence spectra (510 − 600 nm) were monitored using an excitation wavelength of 488 nm[53]^,[54].
# MCF-7 cells [2] = assay: Mitochondrial membrane potential (DiOC2(3), annexin V, flow cytometry); format: cell-based, human; settings: 24 h, untreated 1.1%
# Method: as §4
# MCF-7 cells [3] = assay: Colony formation assay; format: cell-based, human; settings: 50 and 250 nM
# Method: MCF-7 cells (600 cells per well) were seeded in 6-well plates and incubated for 24 h before being then treated with different doses of the compound 12c (50 and 250 nM) for 14 days. Following, the cells were washed with PBS twice and subsequently fixed with 4% paraformaldehyde and stained with 0.05% crystal violet for 30 min. Finally, cells were visualised using an inverted microscope.
# [4] = system: anti-apoptotic protein Bcl-2; assay: Bcl-2 ELISA, expression level in MCF-7 cells; format: cell-based, human; settings: MCF-7, 250 nM, 48 h
# Method: as §3
# [5] = system: pro-apoptotic protein Bax; assay: Bax ELISA, expression level in MCF-7 cells; format: cell-based, human; settings: MCF-7, 250 nM, 48 h
# Method: as §3
# [6] = system: MCF-7, HL-60, HCT-116 and HeLa; assay: MTT cell viability assay, statements over all four cancer cell lines; format: cell-based, human; settings: Homo sapiens
# Method: as §1, §2
# MCF-7 cells [7] = assay: Wound healing assay; format: cell-based, human
# Method: MCF-7 were grown in 6-well plates for 24 h, and scratches were made using pipette tip and washed with PBS to remove non-adherent cell debris. Subsequently, the cells were treated with different concentrations of 12c for 24 h. The migrations across the wound area were photographed under a phase contrast microscopy.
# [8] = 72 h, read-out: IC50 value, HL-60
# [9] = MCF7, 72 h, read-out: IC50 value, MCF-7
"IC50 (HL-60; read-out: IC50, HL-60)","IC50 (MCF-7; MCF7, read-out: IC50, MCF-7)",IC50 [6],Structure (SMILES),IC50 (HL-60; [8]),IC50 (MCF-7; [9]),"increase in caspase-9 activation (caspase-9; MCF-7, 50 nM)",levels of ROS in MCF-7 cells (MCF-7 cells [1]; 50 nM),percentage of apoptotic cells with decrease in MMP (MCF-7 cells [2]; 50 nM),percentage of apoptotic cells with decrease in MMP (MCF-7 cells [2]; 250 nM),clonogenic formation potential of MCF-7 cells (MCF-7 cells [3]),"increase in caspase-9 activation (caspase-9; MCF-7, 250 nM)",expression level of the anti-apoptotic protein Bcl-2 [4],expression of the pro-apoptotic protein Bax [5],levels of ROS in MCF-7 cells (MCF-7 cells [1]; 250 nM),MCF-7 cell migration into wound area (MCF-7 cells [7])
–,–,–,"COc1ccc(/C=C\c2cc(OC)c(OC)c(OC)c2)cc1O [CA-4, Combretastatin A-4]",76 ± 4 nM,19 ± 4 nM,14 fold,18.3%,–,–,–,–,–,–,–,–
10 nM,19 nM,10 to 42 nM,"COc1cc(C2=NC(=Cc3cc4ccc(C)cc4nc3OC)C(=O)O2)cc(OC)c1OC [Compound 12c, 4-[(2-Methoxy-7-methylquinolin-3-yl)methylene]-2–(3,4,5-trimethoxyphenyl) oxazol-5(4H)-one]",19 nM,10 ± 3 nM,about 8 fold,22.7%,24.9%,31.3%,suppressed the clonogenic formation potential of MCF-7 cells in a dose dependent manner,~16 fold,decreased,up-regulated,26.6%,significantly inhibited in a dose-dependent manner
